From patent publication US7230157B1, “Chemical inducible promoter used to obtain transgenic plants with a silent marker and organisms and cells and methods of using same for screening for mutations” (The Rockefeller University, priority 1998, dated 2007)

How the values were obtained:
[1] = test system: tobacco leaf discs; experiment: DEX-dependent regeneration and Luc activity of tobacco leaf discs transfected with pTA7002G/ipt/luc; assay type: cell-based, Nicotiana tabacum; settings: for Percentage of LUC^+ regenerants / Total number of regenerants per 28 explants: Tobacco
Protocol: Nicotiana tabacum seeds cultivar SR1 were surface sterilized in 30% commercial bleach containing 0.02% Tween 20 for 10 minutes and washed five times with sterile water. Plants were grown in a tissue culture room at 22° C. at 16 hour light and 8 hour dark cycles. Tobacco transformation was essentially as described by Horsch et al. (1985) and Klee et al. (1987). Leaf discs were prepared from young leaves of four week old plants and the explants were cultured for two days on MB medium (MS salts, B5 vitamins, 20 g/L sucrose, 20 mg/L acetosyringone, 0.2% phytagel, pH 5.7). […] After 20 to 40 days of culturing, regenerated shoots were excised from explants and cultured on MS medium containing IAA to induce root regeneration.
(§1) The explants were transferred to fresh medium every two weeks to maintain constant culture conditions.
(§2) The transformation cassette pTA7002G/ipt/luc (FIG. 12) contained a luc gene under the control of the CaMV 35S promoter (Millar et al., 1992; Benfey and Chua, 1990). Luc activity was measured in order to estimate the number of transgenic shoots using the video imaging system described by Michelet and Chua (1996). Measurements were integrated over 5 minutes and the corresponding background was subtracted from the images (FIGS. 9A-F). Approximately 50% of the regenerants expressed the luc gene (Table 2).
To further characterize the transformation system, we examined the effects of the duration of induction as well as the effects of exogenously applied phytohormones. Time course experiments were performed to determine whether the specificity of the induction of the ipt gene decreases over time due to overproduction and diffusion of cytokinin, which could trigger regeneration events in neighboring, non-transformed cells. […] No significant difference in the percentage of regenerants with detectable Luc activity was found over time. After 20 days, 46% of regenerants had detectable Luc activity and after both 30 and 40 days 53% of regenerants had detectable Luc activity. […] Similar results have been obtained with lettuce.
No significant difference in luciferase activity occurred at different auxin concentrations. At 1.0 mg/mL auxin 45% of regenerants had detectable Luc activity, at 1.5 mg/mL auxin 58% of regenerants had detectable Luc activity, and at 2.0 mg/mL auxin 47% of regenerants had detectable Luc activity.

[2] = test system: tobacco leaf disks; experiment: Shoot regeneration from tobacco leaf disks transfected with XVE-CKI1; assay type: cell-based; settings: no externally applied plant hormones
Source text: In addition to the GVG-ipt, pER8-CKI1 (XVE-CKI1) has been used to transfect tobacco leaf disks.

[3] = test system: tobacco root cells; experiment: Shoot regeneration from tobacco root cells transformed with XVE-CKI1; assay type: cell-based
Source text: The XVE-CKI1 vector was also used to transform tobacco root cells. […] The explants were transferred to fresh MBC medium (with or without the inducer) every two weeks. […] The explants grown in the presence of inducer formed green callus. […] This experiment used the same number of root explants with inducer as without inducer. Since 65 calli formed with inducer and only 49 without inducer, overexpression of CKI1 may also increase the efficiency of callus formation.

[4] = test system: Arabidopsis root explants; experiment: Regeneration of Arabidopsis root explants transfected with XVE-CKI1; settings: MIC medium with 5 μM 17-β-estradiol
[5] = test system: lettuce leaf disks; experiment: DEX-dependent regeneration and Luc activity of lettuce leaf disks transfected with pTA7002G/ipt/luc; assay type: cell-based, Lactuca sativa; settings: DEX 10 μM
Protocol: Sterilized lettuce […] (Lactuca sativa var. Great Lake #118) were germinated and the seedlings were grown as described for tobacco. Transformation of lettuce leaf discs was performed as described by Curtis et al. (1996) with the exception that cytokinin was omitted from the culture media.
as §1, §2

Compound: auxin
- regenerants with detectable Luc activity ([1]; 10 μM DEX, 40 days): 45%
- regenerants with detectable Luc activity ([1]; 1.5 mg/mL auxin and 10 μM DEX, 40 days): 58%
- regenerants with detectable Luc activity ([1]; 2.0 mg/mL auxin and 10 μM DEX, 40 days): 47%

Compound: C[C@]12CC[C@@H]3c4ccc(O)cc4CC[C@H]3[C@@H]1CC[C@@H]2O [17-β-estradiol]
- time of shoot initiation after induction [2]: 25 to 35 days
- time of shoot initiation after induction ([3]; 5 μM 17-β-estradiol): 40 to 50 days
- white/brown calli that became green and produced shoots ([3]; MBC medium with 5 μM 17-β-estradiol): 13 out of 65
- time of culture until small dark green callus appears [4]: about 10 days
- time of culture until small shoots appear [4]: about 15 days

Compound: C[C@@H]1C[C@H]2[C@@H]3CCC4=CC(=O)C=C[C@]4(C)[C@@]3(F)[C@@H](O)C[C@]2(C)[C@@]1(O)C(=O)CO [DEX, dexamethasone]
- regenerants with detectable Luc activity ([1]; 10 μM DEX, after 20 days of induction, 54 regenerants): 46%
- regenerants with detectable Luc activity ([1]; 10 μM DEX, after 30 days of induction): 53%
- regenerants with detectable Luc activity ([1]; 10 μM DEX, after 40 days of induction): 53%
- Percentage of LUC^+ regenerants ([1]; DEX 0.1 μM): 29
- Total number of regenerants per 28 explants ([1]; DEX 0.1 μM): 139
- Percentage of LUC^+ regenerants ([1]; DEX 1 μM): 44
- Total number of regenerants per 28 explants ([1]; DEX 1 μM): 129
- Percentage of LUC^+ regenerants ([1]; DEX 10 μM): 49
- Percentage of LUC^+ regenerants [5]: 46
- Total number of regenerants per 28 explants [5]: 198
